As usually defined, the MIC is the lowest concentration found to suppress growth.

The record followed here is patent US5854241A, “Pyrido[3,2,1-I,J][3,1]benzoxazine derivatives” (Bayer Aktiengesellschaft, priority 1994, dated 1998).

≈ marks a conversion by molar mass, not a printed value. Where two headings read alike, the source gives them in different places.

Type in all cases: cell-based
One experiment concerns E. coli. Nature of the experiment: MIC by serial agar dilution, E. coli. To be noted: Escherichia coli, 20 h, Iso-Sensitest agar, 37° C., approx. 20 hours. On the procedure:
(§1) The minimum inhibitory concentrations (MICs) were determined by serial dilution methods using Iso-Sensitest agar (Oxoid). For each test substance, a series of agar plates was prepared whose active compound concentrations decreased as the dilution was doubled. The agar plates were inoculated using a multipoint inoculator (Denley). The cultures used for inoculation were overnight cultures of the pathogen which had previously been diluted to such an extent that each inoculation point contained approximately 10^4 colony-forming units. The inoculated agar plates were incubated at 37° C., and the microbial growth was read off after approximately 20 hours.
(§2) The following table lists the MIC values of some of the compounds according to the invention in comparison with 9-fluoro-3-methyl-10-(4-methyl-1-piperazinyl)-7-oxo-1H,3H,7H-pyrido[3,2,1- i,j]-[3,1]-benzoxazine-6-carboxylic acid (EP-O 373 531) as reference compound.

In another experiment the test system is Enterobacter. Nature of the experiment: MIC by serial agar dilution, Enterobacter. Particulars: Enterobacter strain 0,4 Ge 02-33; Iso-Sensitest agar, 37° C., approx. 20 hours. The protocol:
as §1, §2
Background: In agar dilution the substance is mixed into plates at graded concentrations.

A further experiment concerns Staphylococcus aureus. Nature of the experiment: MIC by serial agar dilution, Staphylococcus aureus. Particulars: 20 h, Iso-Sensitest agar, 37° C., approx. 20 hours. The protocol: as §1, §2
A further experiment has as its system Klebsiella pneumoniae. Nature of the experiment: MIC by serial agar dilution, Klebsiella pneumoniae. Particulars: Klebsiella pneumoniae strain 2363 Ge; Iso-Sensitest agar, 37° C., approx. 20 hours. The protocol: as §1, §2
The subject of another experiment is Pseudomonas. Nature of the experiment: MIC by serial agar dilution, Pseudomonas. Particulars: Pseudomonas strain BS 698 TGD; Iso-Sensitest agar, 37° C., approx. 20 hours. The protocol:
as §1, §2

A further experiment has as its system Salmonella. Nature of the experiment: MIC by serial agar dilution, Salmonella. Particulars: Salmonella strain 1 Fr; Iso-Sensitest agar, 37° C., approx. 20 hours. On the procedure: as §1, §2
The mark [1] stands for this setting: Staphylococcus aureus strain 3781 Ge.
Setting [2] is: Staphylococcus aureus strain Z 2 Lit.
Where [3] appears, read: E. coli strain Z 431 Lit, read-out: MIC.

Turning to `CC1OCc2c(N3CCN(C)CC3)c(F)cc3c(=O)c(C(=O)O)cn1c23` (centres unmarked) [Reference, 9-fluoro-3-methyl-10-(4-methyl-1-piperazinyl)-7-oxo-1H,3H,7H-pyrido[3,2,1-i,j]-[3,1]-benzoxazine-6-carboxylic acid, reference compound], the MIC against E. coli (E. coli strain 21 Bui) was 0.05 µg/mL (≈ 0.138 µM); in the experiment with E. coli (E. coli strain Z 431 Lit), 0.05 µg/mL (≈ 0.138 µM); against Enterobacter it was 1 µg/mL (≈ 2.77 µM); with Staphylococcus aureus (setting [1]), 128 µg/mL (≈ 354 µM); against Staphylococcus aureus (setting [2]), 16 µg/mL (≈ 44.3 µM); against Klebsiella pneumoniae, 0.5 µg/mL (≈ 1.38 µM). In addition, the MIC with Pseudomonas amounted to 64 µg/mL (≈ 177 µM); against Salmonella, 1 µg/mL (≈ 2.77 µM).
As to `CC1OCc2c(N3CC4CC=CC(N)C4C3)c(F)cc3c(=O)c(C(=O)O)cn1c23` (centres unmarked) [Example 1, 10-(2-Amino-8-azabicyclo[4,3,0]non-3-en-8-yl)-9-fluoro-3-methyl-7-oxo-1H,3H ,7H-pyrido-[3,2,1-i,j][3,1]benzoxazine6-carboxylic acid], the MIC was 4 µg/mL (≈ 10 µM) in the experiment on E. coli (E. coli strain 21 Bui); 0.015 µg/mL (≈ 0.0376 µM) with E. coli (setting [3]); 0.25 µg/mL (≈ 0.626 µM) against Enterobacter; 0.12 µg/mL (≈ 0.3 µM) in the experiment with Staphylococcus aureus (setting [1]); 0.12 µg/mL (≈ 0.3 µM) in the experiment on Staphylococcus aureus (setting [2]); 0.06 µg/mL (≈ 0.15 µM) in the experiment with Klebsiella pneumoniae. Moreover, the MIC came out at 4 µg/mL (≈ 10 µM) in the experiment with Pseudomonas and 0.06 µg/mL (≈ 0.15 µM) in the experiment on Salmonella.
For `CC1OCc2c(N3CC4CCCNC4C3)c(F)cc3c(=O)c(C(=O)O)cn1c23` (centres unmarked) [Example 4, 10-(2.8-Diazabicyclo[4,3,0]nonan-8-yl)-9-fluoro-3-methyl-7-oxo-1H,3H,7H-pyr ido-[3,2,1-i,j][3,1]benzoxazine-6-carboxylic acid], the minimal inhibitory concentration (MIC) in the experiment with E. coli (E. coli strain 21 Bui) worked out at 4 µg/mL (≈ 10.3 µM); with E. coli (setting [3]), 0.06 µg/mL (≈ 0.155 µM); against Enterobacter, 0.12 µg/mL (≈ 0.31 µM); against Staphylococcus aureus (setting [1]) it was 8 µg/mL (≈ 20.6 µM); against Staphylococcus aureus (setting [2]) it was 0.5 µg/mL (≈ 1.29 µM); in the experiment with Klebsiella pneumoniae it was 0.12 µg/mL (≈ 0.31 µM). Moreover, the minimum inhibitory concentration (MIC) with Pseudomonas is 8 µg/mL (≈ 20.6 µM); in the experiment with Salmonella, 0.25 µg/mL (≈ 0.645 µM).
Regarding `CNC1C=CCC2CN(c3c(F)cc4c(=O)c(C(=O)O)cn5c4c3COC5C)CC21` (centres unmarked) [Example 5, 9-Fluoro-3-methyl-10-(2-methylamino-8-azabicyclo[4.3.0]non-3-en-8-yl)-7-oxo-1H,3H,7H-pyrido [3,2,1-i,j][3,]benzoxazine-6-carboxylic acid], the MIC against E. coli (E. coli strain 21 Bui) was 4 µg/mL (≈ 9.67 µM); with E. coli (setting [3]), no more than 0.015 µg/mL; against Enterobacter it was 0.12 µg/mL (≈ 0.29 µM); in the experiment on Staphylococcus aureus (setting [1]), 0.12 µg/mL (≈ 0.29 µM); against Staphylococcus aureus (setting [2]), 0.12 µg/mL (≈ 0.29 µM); against Klebsiella pneumoniae, 0.12 µg/mL (≈ 0.29 µM). Besides, the figures for the minimal inhibitory concentration (MIC) in the experiment with Pseudomonas and against Salmonella were 16 µg/mL (≈ 38.7 µM) and 0.12 µg/mL (≈ 0.29 µM), respectively.
